The source of these data is patent publication US12459951B2, “Compounds that interact with RAS superfamily proteins for treatment of cancers, inflammatory diseases, rasopathies, and fibrotic disease” (SHY Therapeutics, LLC, priority 2022, dated 2025).

SMILES strings stand for the structures. Like-named read-outs stand apart in the source and are kept apart here.

The subject of test [1] is Smad2/Smad3 phosphorylation. The experiment in a line: Phospho-Smad2/3 Inhibition Assay (western blot), Panc-1. The test is classed as cell-based, human. As to conditions: at 10 μM, Panc-1 pancreatic cancer cell line; starred symbols = activation. Here is the method: Protocol for Phospho-Smad2/3 Inhibition Assay
This assay is referred to as the “Phospho-Smad2/3 Inhibition Assay” throughout this application.
Cell lines: Human tumor-derived pancreatic cancer cell line Panc-1 (expressing KRas G12D mutant) and mouse muscle myoblast C2C12 were purchased from American Type Culture Collection and grown in complete DMEM-High Glucose, supplemented with penicillin (100 U/mL), streptomycin (100 μg/mL), and 10% heat-inactivated FBS at 37° C. in a humidified incubator with 5% CO2.
Method: Cells were plated at 350000 cells/well density in a 12-well plate, allowed 3 hours to adhere to the plate, then starved in the appropriate medium in the presence of 0.5% FBS overnight. The small molecules to be tested were added to the cells in the final concentration of 10 μM in the presence of 0.3% DMSO for 3 hours incubation at 37° C. For IC50 value determination, serial dilutions of compounds were added to cells under the same conditions. Next, Panc-1 cells were stimulated with 10 ng/ml TGF-b1 for 1 hour, and C2C12 cells were stimulated with 10 ng/ml TGF-b1 for 20 minutes (recombinant human TGF-b1, R&D Systems). After stimulation cells were lysed with lysis buffer containing 1% Triton X-100, EDTA, and Halt™ Protease & Phosphatase Inhibitor Cocktail (Thermo Scientific). Protein concentration was assessed by BCA protein assay (Thermo Scientific). Phosphorylation level of Smad2/Smad3 was determined by western blot.
Western blot protocol: Equal amounts of protein (15-50 μg) were separated by SDS-PAGE and transferred to nitrocellulose membranes (Invitrogen by Thermo Fisher Scientific). The membrane was stained with Ponceau S Stain (Boston BioProducts) to verify uniform protein loading. Membranes were blocked with 10% milk and phosphorylation levels of Smad2/Smad3 were assessed by incubating overnight at 4° C. with the following antibodies: Phospho-Smad2 (Ser465/467) and Phosph-Smad3 (Ser423/425), both from Cell Signaling Technology. Then the membranes were incubated with HRP-conjugated secondary antibody (Jackson Immunoresearch, West Grove, PA). Bands were incubated in Amersham ECL Prime Western Blotting Detection Reagent (GE Healthcare) and visualized using the ChemiDoc MP imaging system (Bio-Rad).
Background: In western blotting, separated proteins are transferred to a membrane and probed.

For test [2], the system named is MiaPaca-2 (expressing KRAS G12C mutant). The experiment in a line: Proliferation Assay (Cell Viability Assay). It is filed as cell-based. Particulars: Homo sapiens, MIA PaCa-2. As to the method:
Protocol for Proliferation Assay
This assay is referred to as the “Proliferation Assay” or “Cell Viability Assay” throughout this application.
Cell lines: Human tumor-derived cell lines were purchased from American Type Culture Collection. Human tumor-derived pancreatic cancer cell line MiaPaca-2 (expressing KRAS G12C mutant) and Panc-1 (expressing KRas G12D mutant), and Human non-small cell lung cancer (NSCLC) cell line A549 (expressing KRas G12S mutant) were grown in complete DMEM-High Glucose medium. Human colon cancer cell line SW-620 (expressing KRas G12V mutant) was grown in RPMI 1640 medium. All cell lines were supplemented with penicillin (100 U/mL), streptomycin (100 μg/mL), and 10% heat-inactivated FBS at 37° C. in a humidified incubator with 5% CO2.
Method: Cells were plated at 2000 to 5000 cells/well density in 96-wells plate and cultured overnight. Small molecules to be tested were added to the cells in the final concentration of 10 μM in the presence of 0.3% DMSO and 10% FBS and incubated for 2-4 days at 37° C. in a humidified incubator with 5% CO2. For IC50 value determination, serial dilutions of compounds were added to cells under the same conditions.
Assay: At the end of the incubation period, cell viability was determined using the CellTiter 96® Aqueous One Solution Cell Proliferation Assay according to manufacturer specifications (Promega, Madison, WI). The percentage of small molecules inhibition of cellular proliferation was calculated from raw data.
Cell lines: these Human tumor-derived cell lines were purchased from American Type Culture Collection. Human tumor-derived pancreatic cancer cell line MiaPaca-2 (expressing KRAS G12C mutant) and Panc-1 (expressing KRas G12D mutant), and Human non-small cell lung cancer (NSCLC) cell line A549 (expressing KRas G12S mutant), and Human melanoma cell line A375 (wild type Kras) were grown in complete DMEM-High Glucose medium. Human tumor-derived pancreatic cancer cell lines SU86.86 (expressing KRas G12D mutant), BxPC3 (expressing wild type K-Ras), and Human non-small cell lung cancer (NSCLC) cell lines NCI-H441 (expressing KRas G12S mutant), NCI-H1975 (expressing wild type KRas), NCI-H358 (expressing KRas G12C mutant), NCI-H1299 (expressing NRas Q61H mutant), and Human colon cancer cell line SW-620 (expressing KRas G12V mutant), Human triple negative breast cancer cell line HCC-1806 (expressing wild type KRas), and Human tumor-derived multiple myeloma cell line MM.1R (expressing wild type KRAS), were grown in RPMI 1640 medium. Human tumor-derived breast cancer cell line BT-549 (expressing wild type KRAS) was grown in RPMI 1640 medium in the presence of 11.8U insulin. Human tumor-derived pancreatic cancer cell line HPAF-II (expressing KRas G12D mutant), Human triple negative breast cancer cell line BT-20 (expressing wild type KRas), and Human colon cancer cell line LS123 (expressing KRas G12S mutant), were grown in EMEM medium. Human tumor-derived pancreatic cancer cell line CF-PAC1 (expressing KRas G12V mutant) was frown in IMDM medium, and Human colon cancer cell line HT29 (expressing wild type KRas) was grown in McCoy's 5A medium. The colon cancer cell line GP2d (expressing KRas G12D mutant) was purchased from MilliporeSigma and grown in DMEM-High Glucose medium. All cell lines were supplemented with penicillin (100 U/mL), streptomycin (100 μg/mL), and 10% heat-inactivated FBS at 37° C. in a humidified incubator with 5% CO2.
Method: Cells were plated at 2000 to 5000 cells/well density in 96-wells plate and cultured overnight. Small molecules that were tested were added to the cells in the final concentration of 10 μM in the presence of 0.3% DMSO and 10% FBS, and incubated for 2-4 days at 37° C. in a humidified incubator with 5% CO2. For IC50 value determination, serial dilutions of compounds were added to cells under the same conditions.

[3] abbreviates: read-out: Proliferation in MiaPaca-2: IC50.

On to `Cc1c(-c2ccn(C)n2)cn2nc(-c3nccn3C)nc(Nc3ccn(C4CC4)n3)c12` [Compound 111, N-(1-Cyclopropyl-1H-pyrazol-3-yl)-5-methyl-2-(1-methyl-1H-imidazol-2-yl)-6-(1-methyl-1H-pyrazol-3-yl)pyrrolo[2,1-f][1,2,4]triazin-4-amine], for which the “% inh of Smad2/3 phosphorylation in Panc-1” value (from here on “% inh”) in test [1] is listed as “D* (D* = 76-100% activation)”. Also, the IC50 in test [2] (setting [3]) is 150 to 500 nM.

For `COc1cc(Nc2nc(-c3nccn3C)nn3cc(-c4ccn(C5CC5)n4)c(C)c23)ncn1` [Compound 135, 6-(1-Cyclopropyl-1H-pyrazol-3-yl)-N-(6-methoxypyrimidin-4-yl)-5-methyl-2-(1-methyl-1H-imidazol-2-yl)pyrrolo[2,1-f][1,2,4]triazin-4-amine], the “% inh” value in test [1] is on record as “A* (A* = 1-25% activation)”. Also, in test [2] (setting [3]), the IC50 was under 150 nM.

As to `Cc1c(-c2ccn(C)n2)cn2nc(-c3nccn3C)nc(Nc3n[nH]c(C4CC4)n3)c12` [Compound 113, N-(5-Cyclopropyl-1H-1,2,4-triazol-3-yl)-5-methyl-2-(1-methyl-1H-imidazol-2-yl)-6-(1-methyl-1H-pyrazol-3-yl)pyrrolo[2,1-f][1,2,4]triazin-4-amine], in test [1], the “% inh” value was “D* (D* = 76-100% activation)”. Moreover, the IC50 in test [2] (setting [3]) is under 150 nM.

Regarding `CCOc1ccnc(Nc2nc(-c3nccn3C)nn3cc(-c4ccn(C5CC5)n4)c(C)c23)c1` [Compound 141, 6-(1-Cyclopropyl-1H-pyrazol-3-yl)-N-(4-ethoxypyridin-2-yl)-5-methyl-2-(1-methyl-1H-imidazol-2-yl)pyrrolo[2,1-f][1,2,4]triazin-4-amine], the “% inh” value in test [1] was “D (D = 76-100% inhibition)”. Also, the IC50 in test [2] (setting [3]) is under 150 nM.

Regarding `Cc1c(-c2ccn(C)n2)cn2nc(-c3nccn3C)nc(Nc3cc(OC(F)(F)F)ccn3)c12` [Compound 127, 5-Methyl-2-(1-methyl-1H-imidazol-2-yl)-6-(1-methyl-1H-pyrazol-3-yl)-N-(4-(trifluoromethoxy)pyridin-2-yl)pyrrolo[2,1-f][1,2,4]triazin-4-amine], the “% inh” value in test [1] was “A (A = 1-25% inhibition)”. In addition, in test [2] (setting [3]), the IC50 was under 150 nM.

For the molecule `Cc1c(-c2ccn(C)n2)cn2nc(-c3nccn3C)nc(Nc3ccccn3)c12` [Compound 118, 5-Methyl-2-(1-methyl-1H-imidazol-2-yl)-6-(1-methyl-1H-pyrazol-3-yl)-N-(pyridin-2-yl)pyrrolo[2,1-f][1,2,4]triazin-4-amine], in test [1], the “% inh” value is reported as “A* (A* = 1-25% activation)”. Moreover, in test [2] (setting [3]), the IC50 was under 150 nM.

With `COc1cncnc1Nc1nc(-c2nccn2C)nn2cc(-c3ccn(C)n3)c(C)c12` [Compound 107, N-(5-Methoxypyrimidin-4-yl)-5-methyl-2-(1-methyl-1H-imidazol-2-yl)-6-(1-methyl-1H-pyrazol-3-yl)pyrrolo[2,1-f][1,2,4]triazin-4-amine], the “% inh” value in test [1] is “A (A = 1-25% inhibition)”. Moreover, the IC50 in test [2] (setting [3]) is under 150 nM.

With `Cc1c(-c2ccn(C(C)C)n2)cn2nc(-c3ccccn3)nc(O)c12` [Compound 8, 6-(1-Isopropyl-1H-pyrazol-3-yl)-5-methyl-2-(pyridin-2-yl)pyrrolo[2,1-f][1,2,4]triazin-4-ol], the “% inh” value in test [1] is on record as 0 (0 = 0% inhibition). Moreover, in test [2] (setting [3]), the IC50 is over 1000 nM.

As for `CO[C@H]1C[C@H](Nc2nc(-c3nccn3C)nn3cc(-c4cccnc4)c(C)c23)C1` [Compound 151, N-((1r,3r)-3-Methoxycyclobutyl)-5-methyl-2-(1-methyl-1H-imidazol-2-yl)-6-(pyridin-3-yl)pyrrolo[2,1-f][1,2,4]triazin-4-amine], the “% inh” value in test [1] is listed as “A (A = 1-25% inhibition)”. Further, in test [2] (setting [3]), the IC50 was over 1000 nM.

On to `Cc1c(-c2ccn(C3CC3)n2)cn2nc(-c3nccn3C)nc(Nc3cc(OCCN(C)C)ccn3)c12` [Compound 147, 6-(1-Cyclopropyl-1H-pyrazol-3-yl)-N-(4-(2-(dimethylamino)ethoxy)pyridin-2-yl)-5-methyl-2-(1-methyl-1H-imidazol-2-yl)pyrrolo[2,1-f][1,2,4]triazin-4-amine], for which, in test [1], the “% inh” value is “C (C = 46-75% inhibition)”. Besides, the IC50 in test [2] (setting [3]) was over 1000 nM.

Regarding `Cc1c(-c2ccn(C)n2)cn2nc(-c3nccn3C)nc(Nc3cc4n(n3)CCO4)c12` [Compound 124, N-(5-Methyl-2-(1-methyl-1H-imidazol-2-yl)-6-(1-methyl-1H-pyrazol-3-yl)pyrrolo[2,1-f][1,2,4]triazin-4-yl)-2,3-dihydropyrazolo[5,1-b]oxazol-6-amine], the “% inh” value in test [1] was “A (A = 1-25% inhibition)”. Besides, the IC50 in test [2] (Proliferation assay, MiaPaca-2, read-out: MiaPaca-2 IC50 (nM) Pancreatic) was 1 to 10 nM; in test [2] (setting [3]), under 150 nM.

Consider `Cc1c(-c2ccn(C(C)C)n2)cn2nc(-c3nccn3C)nc(Nc3nccc(OCCN(C)C)n3)c12` [Compound 96, N-(4-(2-(Dimethylamino)ethoxy)pyrimidin-2-yl)-6-(1-isopropyl-1H-pyrazol-3-yl)-5-methyl-2-(1-methyl-1H-imidazol-2-yl)pyrrolo[2,1-f][1,2,4]triazin-4-amine], for which the “% inh” value in test [1] is on record as “D (D = 76-100% inhibition)”. For the same molecule, in test [2] (setting [3]), the IC50 lay within 150 to 500 nM.

In the case of `CO[C@H]1C[C@H](Nc2nc(-c3nccn3C)nn3cc(-c4ccncc4)c(C)c23)C1` [Compound 159, N-((1r,3r)-3-Methoxycyclobutyl)-5-methyl-2-(1-methyl-1H-imidazol-2-yl)-6-(pyridin-4-yl)pyrrolo[2,1-f][1,2,4]triazin-4-amine], the “% inh” value in test [1] was “C (C = 46-75% inhibition)”. The IC50 in test [2] (setting [3]) was over 1000 nM.

As to `COc1ccnc(Nc2nc(-c3nccn3C)nn3cc(-c4cccnc4)c(-c4ccccn4)c23)c1` [Compound 166, N-(4-Methoxypyridin-2-yl)-2-(1-methyl-1H-imidazol-2-yl)-5-(pyridin-2-yl)-6-(pyridin-3-yl)pyrrolo[2,1-f][1,2,4]triazin-4-amine], in test [1], the “% inh” value is “C* (C* = 46-75% activation)”. Moreover, the IC50 in test [2] (setting [3]) was over 1000 nM.
